Measurements reported in publication PMC8791611 (Science Advances, 2022).
Changes are numbered by the printed parent chain. In names and notes the source's numbering stands.

B1: BmrA E504A mutant (Bacillus subtilis multidrug ABC exporter, homodimeric) (natural protein)
chain: MPTKKQKSKSKLKPFFALVRRTNPSYGKLAFALALSVVTTLVSLLIPLLTKQLVDGFSMSNLSGTQIGLIALVFFVQAGLSAYATYALNYNGQKIISGLRELLWKKLIKLPVSYFDTNASGETVSRVTNDTMVVKELITTHISGFITGIISVIGSLTILFIMNWKLTLLVLVVVPLAALILVPIGRKMFSISRETQDETARFTGLLNQILPEIRLVKASNAEDVEYGRGKMGISSLFKLGVREAKVQSLVGPLISLVLMAALVAVIGYGGMQVSSGELTAGALVAFILYLFQIIMPMGQITTFFTQLQKSIGATERMIEILAEEEEDTVTGKQIENAHLPIQLDRVSFGYKPDQLILKEVSAVIEAGKVTAIVGPSGGGKTTLFKLLERFYSPTAGTIRLGDEPVDTYSLESWREHIGYVSQESPLMSGTIRENICYGLERDVTDAEIEKAAEMAYALNFIKELPNQFDTEVGERGIMLSGGQRQRIAIARALLRNPSILMLDAATSSLDSQSEKSVQQALEVLMEGRTTIVIAHRLSTVVDADQLLFVEKGEITGRGTHHELMASHGLYRDFAEQQLKMNADLENKAG

Experiments:
BmrA [1] = molecular target: T1, BmrA (Bacillus subtilis, UniProt O06967); experiment: intrinsic fluorescence binding, purified WT BmrA in DDM
T1 sequence (O06967 1-589): B1 chain with A504E

BmrA [2] = molecular target: T2, BmrA (Bacillus subtilis, UniProt O06967, E504A); experiment: cryo-EM structure; assay type: binding
T2 sequence (O06967 1-589 E504A): B1 chain with A504E

crystal structure = molecular target: the molecule itself; experiment: crystal structure

| Molecule | Kd (BmrA [1]) | Kd (BmrA [2]) | binding result (crystal structure) |
| --- | --- | --- | --- |
| CC/N=c1\cc2oc3cc(NCC)c(C)cc3c(-c3ccccc3C(=O)OCC)c-2cc1C [R6G] | 4.8 ± 0.9 µM | 3.3 ± 0.7 µM | – |
| B1 | – | – | binds |
